The record followed here is paper PMC6150735, “Molecular Docking-Based Design and Development of a Highly Selective Probe Substrate for UDP-glucuronosyltransferase 1A10” (Molecular Pharmaceutics, 2018).

What is called Km is the substrate concentration at which the rate is half of its maximum.

A short description of data set [1]: Glucuronidation by human intestinal microsomes (HIM). Type of data set: in vitro ADME. As to conditions: human, pooled human intestinal microsomes (HIM), pH 7.4. The protocol: (§1) A commercial HLM pool (cat no:452210, BD Gentest, Bedford, MA) and human intestine microsomes (HIM) pool (lot. no 1110189, XenoTech, Kansas City, KS) were purchased. Pig liver samples were prepared from untreated female pigs that were used for practicing surgical procedures at the University of Kuopio (currently: University of Eastern Finland, Kuopio campus). Other animal liver microsomes were prepared as described previously.[41] The Ethics Committee for Animal Experiments, University of Kuopio, approved these experiments.
(§2) The incubation mixtures for glucuronidation assays contained 100 mM Tris-HCl buffer pH 7.4, 2.5 mM MgCl2, 0.5 mM UDPGA, recombinant UGT, or microsomes as the enzyme source and 0–15 μM of the test aglycone substrate. When the incubation mixtures contained microsomes, alamethicin was used at a final concentration of 12.5 μg/mL, but it was not included in the recombinant enzyme assays.[43] In the first experiments three negative control samples were tested, namely (i) without the substrate 7-hydroxycoumarin derivative, (ii) without the cofactor UDPGA, or (iii) without the enzyme source. In subsequent experiments, the control samples lacked the enzyme source since it gave the highest fluorescence background. Preliminary experiments were done under different conditions than most of the later assays, namely in 2.5 mL of 100 mM phosphate buffer pH 7.4, containing 500 μg pig liver microsomes, 1.0 μM compound 6 and 0.5 mM UDPGA, at room temperature. Fluorescence spectra (excitation 200–420 nm; emission 400–600 nm) or fluorescence decrease at 390 nm excitation and 460 nm emission, were measured in these preliminary experiments, using a Shimadzu RF-5000 spectrophotofluorometer.
(§3) Most of the glucuronidation assays were carried out in 96 multiwell plate format, and incubations were carried out in 100 μL and at 37 °C, in the presence of Tris–HCl buffer pH 7.4, UDPGA, and the tested 7-hydroxycoumarin derivative, at the indicated concentrations. Fluorescence decline in the multiwell plate experiments was monitored every other minute, for 40 min, using an excitation filter at 405 nm and detection at 460 nm, in a Victor2 1420 Multilabel counter (PerkinElmer, Life Sciences, Turku, Finland). The fluorescence values were transformed into molarity using the aglycone substrates for making the respective standard curves. Slopes of the substrate concentration decrease per minute were calculated using linear regression analysis, in which the linear part of the kinetic assay indicated the glucuronidation rate. Enzyme catalyzed glucuronidation rate was calculated by subtracting the blank value from the full reaction value. The intra-assay variability of the kinetic assays was 6% when compound 6 was used as the aglycone substrate. Kinetic analyses were also performed in the same 96 multiwell plates format, with excitation filter at 405 nm and detection at 460 nm, using 6–8 different substrate concentrations per substrate and two different protein concentrations for both the wild-type and mutant UGT1A10. The higher concentrations, 13.5 mg/L for UGT1A10 and 12.0 mg/L for the UGT1A10 mutant, were used when the substrates were HFC, compounds 4 and 6, whereas the lower protein concentrations, 6.75 and 6.0 mg/L for UGT1A10 and the mutant, respectively, were used when the substrates were compounds 1, 2, 3, and 5.

Data set [2] has as its system human intestinal microsomes (HIM). The data set is described as above. Format: in vitro ADME. On the procedure: as §1, §2, §3

Turning to `O=c1oc2cc(O)ccc2cc1-n1cncn1` [Compound 6, 7-Hydroxy-3-(1H-1,2,4-triazol-1-yl)-2H-chromen-2-one], in data set [1], the Km is 12 µM. In data set [2] (human intestinal microsomes), the Vmax is listed as 3.5 (2.9–4.0) μmol/(min * g prot). In data set [2] (intestinal microsomes, albumin in incubation mixture), the “Effect of adding albumin on Km and Vmax” value was “increased both Km and Vmax values”.
